From patent US20230293483A1, “COMPOSITION FOR PREVENTING OR TREATING LIVER DISEASE, COMPRISING ICARITIN AND QUERCETIN” (INDUSTRY-ACADEMIC COORPERATION FOUNDATION DAEGU HAANY …, priority 2020, published 2023) come the findings set out here.

Each structure is given as a SMILES string.

This series relates to HepG2 cells. In words: Cell viability test (MTT assay) against oxidative stress induced by AA+iron. The class given is cell-based, human. To be noted: for hepatocellular protective effect (cell viability): AA+iron in HepG2, compared with genistein and luteolin at the same concentration, FIG. 1. The procedure:
HepG2 cell, a human-derived liver parenchymal cell line, was purchased from the American Type Culture Collection (ATCC, Rockville, MD, USA). Dulbecco's modified Eagle's medium (DMEM; Gibco) mixed with heat-treated 10% fetal bovine serum (FBS; Gibco), 100 units/ml of penicillin, and 100 μg/mL of streptomycin (Gibco) was used to culture HepG2 cells in an incubator maintained at 37° C. and 5% CO2 conditions. Cells were cultured in a 100 mm dish to a confluence of 80% or more, and subcultured twice a week at a ratio of 1:4. After serum-starvation for 12 hours, drugs were treated at different concentrations, and 1 hour later, 10 μM of AA was treated for 12 hours, and then treated with 5 μM of iron, and further cultured for 5 hours.
Cell viability was measured by MTT assay. HepG2 cells were dispensed in 0.5 mL/well at a concentration of 2×10^5 cells/well in a 24-well plate, and then cultured for 24 hours. After serum was depleted for 12 hours, the drug was treated for 1 hour, and then 10 μM of AA was treated for 12 hours, and 5 μM of iron was added and cultured for 5 hours. Herein, 300 μL of MTT 0.5 mg/mL per well was treated and reacted at 37° C. for 2 hours. After carefully removing the medium and dissolving formazan crystals produced by reducing MTT with dimethylsulfoxide (DMSO), absorbance was measured at 570 nm using a microplate measuring instrument (Tecan Infinite M200 PRO, USA).
In addition, in order to identify the cell viability according to the mixed use of icaritin and quercetin according to the results of FIG. 1, HepG2 cells were dispensed in 2×10^5 cells/well into a 24-well plate and cultured for 24 hours. After treatment for 1 hour at the concentrations shown in Table 1 below, 10 μM of AA was treated for 12 hours, and 5 μM of iron was added and cultured for 5 hours. […] The absorbance was measured at 570 nm using a microplate measuring instrument (Tecan Infinite M200 PRO, USA).
A general note: Tetrazolium assays rely on reduction of a dye to a coloured formazan, in cell work by metabolically active cells.

As to `COc1ccc(-c2oc3c(CC=C(C)C)c(O)cc(O)c3c(=O)c2O)cc1` [Comparative Example 1, icaritin], the “hepatocellular protective effect (cell viability)” value is given as “most significant hepatocellular protective effects”.

In the case of `O=c1c(O)c(-c2ccc(O)c(O)c2)oc2cc(O)cc(O)c12` [Comparative Example 2, quercetin], the “hepatocellular protective effect (cell viability)” value is reported as “most significant hepatocellular protective effects”. The cell viability entry (HepG2, drug 1 h, then 10 μM AA 12 h + 5 μM iron 5 h, MTT, FIG. 2) is on record as “about 47.9±0.4%”.
